# Measurements taken from patent US12286443B2, “Bycyclic JAK inhibitors and uses thereof” (Insilico Medicine IP Limited, priority 2019, dated 2025).
# System: Hut-78 cells
# Assay: Inhibition in Hut-78 cells (IL-2 stimulated, HTRF)
# Assay type: cell-based
# Conditions: Homo sapiens, HuT78; compound 2 hours at 37° C., then IL-2 100 ng/mL 10 min; HTRF; read-out: Hut-78 cells IC50
# Procedure: Exemplary compounds were assayed to determine potency in inhibiting Hut-78 cells by determining IC50 values.
# Hut-78 cells were cultures in IMDM+20% FBS medium. Cells were maintained in log phase before the assay. Cell pellets were collected and resuspended in serum-free and phenol-free RPMI 1640 medium. 40,000 cells/well (10 μL) were seeded in each well of a 384-well plate and incubated with and without compound for 2 hours at 37° C. and 5% C02. IL-2 was added (2 μL, final concentration 100 ng/mL) and the mixture was incubated for 10 min. Cells were lysed by adding 4 μL labeled antibodies and the mixture was incubated overnight. The plate was read using the HTRF protocol on an Envision plate reader. The data was analyzed using XL-fit software (Supplier: ID business solutions Ltd.; Software version: XL fit 5.0). Inhibition %=(Max−Sample value)/(Max−Min)*100.
# In the table, “A” indicates an IC50 of less than 0.5 μM, “B” indicates an IC50 range from 0.5 μM to 1 μM; and “C” indicates an IC50 range from 1 μM to 10 μM. Also, “na” indicates data is not available.
row,Compound,IC50 [nM]
1,COCCn1nc(C(=O)NCCC(F)(F)F)c2c1CCN(c1ncnc3[nH]ccc13)C2 [Compound 104],500 to 1000
2,O=C(NC(CO)CC(F)(F)F)c1noc2c1CN(c1ncnc3[nH]ccc13)CC2 (stereo not drawn) [Compound 186],< 500
3,O=C(NC1CC(O)(C(F)(F)F)C1)c1noc2c1CN(c1ncnc3[nH]ccc13)CC2 (stereo not drawn) [Compound 201],< 500

# Further lines, results first:
row,IC50 [nM],Compound
1,< 500,O=C(NCC(O)C(F)(F)F)c1noc2c1CN(c1ncnc3[nH]ccc13)CC2 (stereo not drawn) [Compound 190]
2,< 500,O=C(NCC1CC(F)(F)C1)c1noc2c1CN(c1ncnc3[nH]ccc13)CC2 [Compound 198]
3,1000 to 10000,O=C(NCCC(F)(F)F)c1n[nH]c2c1CN(c1ncnc3[nH]ccc13)CC2 [Compound 109]

# Target: T1, TYK2 (Homo sapiens, UniProt P29597)
# T1 construct: purchased Invitrogen PR8440C
# Assay: Inhibition of TYK2 kinase, LANCE Ultra TR-FRET assay
# Assay type: biochemical
# Conditions: 4 nM TYK2, 2x ATP 30 μM, 15 min pre-incubation, 90 min reaction, 23° C., read-out: tyk IC50
# Procedure: (§1) Exemplary compounds were assayed to determine potency in inhibiting activity of JAK1-3 and TYK2 kinases by determining IC50 values.
# (§2) The sources of test materials and equipment are as follows: JAK1 (Invitrogen, Cat. No PV4775), JAK2 (Invitrogen, Cat. No PV4210), JAK3 (Invitrogen, Cat. No PV4080), TYK2 (Invitrogen, Cat. No PR8440C), ATP (Sigma, Cat. No. A7699-1G), DMSO (Sigma, Cat. No. D2650), DTT (Sigma, Cat. No. 43815), 384 wells_compound plate (Greiner, Cat. No. 781280), 384 wells_assay plate (Perkin Elmer, Cat. No. 6007299), LANCE Ultra ULight™-JAK-1 peptide (Perkin Elmer, Cat. No. TRF0121), LANCET™ Eu-W1024 Anti-phosphotyrosine (PT66) (Perkin Elmer, Cat. No. AD0069), LANCET™ Detection Buffer(Perkin Elmer, Cat. No. CR97-100).
# (§3) The concentrations of test compounds varied from 100 μM to 1.7 nM with 3-fold dilution, 11 points, in duplicates while the concentrations of the reference compound, Tofacitinib, varied from 1 μM to 0.017 nM with 3-fold dilution, 11 points, in duplicates.
# (§4) The assay buffer contained 50 mM HEPES (pH 7.5), 0.01% Brij-35, 10 mM MgCl2, 1 mM EDTA, 2 mM DTT. Incubations were carried out at 23° C.
# (§5) Prior to the assay, enzyme, peptide substrate and serially diluted test compounds were pre-incubated together in assay buffer (5 μL) for 15 minutes (peptide substrate concentration: 50 nM; JAK enzyme concentrations: 2 nM JAK1; […]; […] and 4 nM TYK2). And the assay was initiated by the addition of 5 μL assay buffer containing 2× final ATP concentration (these are the 2×ATP concentrations: 76 μM JAK1; 24 μM JAK2; 8 μM JAK3 and 30 μM TYK2). Following the 90-minute incubation, antibody conjugated with Eu is dissolved in detection buffer to add into wells and then incubated for 60 minutes. The 10 μL detection buffer contains EDTA to stop the enzymatic reaction. The plate is analyzed by Perkin Elmer Envision on TR-FRET mode. The high ratio of 665/615 represents no inhibition of kinase reaction while the low ratio of 665/615 represents complete inhibition of kinase reaction.
# (§6) Curves are fit by XLFIT5 as inhibition rate % vs. log [compound concentration] using 4 parameters logistic model 205.
# (§7) In the table, “A” indicates an IC50 of less than 100 nM, “B” indicates an IC50 range from 100 nM to 500 nM; “C” indicates an IC50 range from 500 nM to 2 μM; and “D” indicates an IC50 greater than 2 μM. Also, “na” indicates data is not available.
# T1 sequence (P29597 whole entry): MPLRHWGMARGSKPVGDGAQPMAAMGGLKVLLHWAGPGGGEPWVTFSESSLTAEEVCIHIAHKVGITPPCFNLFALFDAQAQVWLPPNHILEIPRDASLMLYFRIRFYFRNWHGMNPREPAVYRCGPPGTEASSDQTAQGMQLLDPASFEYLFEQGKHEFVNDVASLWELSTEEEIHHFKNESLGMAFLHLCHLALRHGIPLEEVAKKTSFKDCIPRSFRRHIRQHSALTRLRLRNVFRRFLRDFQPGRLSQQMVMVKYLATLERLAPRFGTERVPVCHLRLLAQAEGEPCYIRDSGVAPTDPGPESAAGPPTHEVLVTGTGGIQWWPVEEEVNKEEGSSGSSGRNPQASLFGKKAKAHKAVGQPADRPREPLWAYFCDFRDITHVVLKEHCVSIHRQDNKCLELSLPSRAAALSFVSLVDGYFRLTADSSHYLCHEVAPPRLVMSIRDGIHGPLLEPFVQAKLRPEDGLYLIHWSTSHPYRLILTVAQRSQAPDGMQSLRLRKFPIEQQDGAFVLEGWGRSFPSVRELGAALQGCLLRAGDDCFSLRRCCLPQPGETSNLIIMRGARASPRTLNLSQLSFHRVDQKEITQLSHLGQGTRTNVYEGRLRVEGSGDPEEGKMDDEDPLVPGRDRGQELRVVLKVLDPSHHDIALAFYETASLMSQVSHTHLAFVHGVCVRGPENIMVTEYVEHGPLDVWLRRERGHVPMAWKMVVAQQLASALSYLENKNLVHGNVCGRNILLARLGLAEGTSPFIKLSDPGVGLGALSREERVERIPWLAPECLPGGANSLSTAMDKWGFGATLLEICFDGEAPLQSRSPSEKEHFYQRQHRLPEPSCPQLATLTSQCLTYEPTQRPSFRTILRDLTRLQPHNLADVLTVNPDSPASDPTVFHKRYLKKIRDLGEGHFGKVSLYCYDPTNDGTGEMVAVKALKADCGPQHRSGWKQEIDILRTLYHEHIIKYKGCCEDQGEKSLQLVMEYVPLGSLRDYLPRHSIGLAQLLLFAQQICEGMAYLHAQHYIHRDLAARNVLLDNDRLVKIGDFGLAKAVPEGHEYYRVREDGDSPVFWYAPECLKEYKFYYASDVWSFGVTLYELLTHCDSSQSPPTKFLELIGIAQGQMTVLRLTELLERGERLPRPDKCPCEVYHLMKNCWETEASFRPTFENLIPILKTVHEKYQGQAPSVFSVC
row,Compound,IC50 [nM]
1,COCCn1nc(C(=O)NCCC(F)(F)F)c2c1CCN(c1ncnc3[nH]ccc13)C2 [Compound 104],> 2000
2,O=C(NC(CO)CC(F)(F)F)c1noc2c1CN(c1ncnc3[nH]ccc13)CC2 (stereo not drawn) [Compound 186],100 to 500
3,O=C(NC1CC(O)(C(F)(F)F)C1)c1noc2c1CN(c1ncnc3[nH]ccc13)CC2 (stereo not drawn) [Compound 201],> 2000

# The next lines start with the values.
row,IC50 [nM],Compound
1,100 to 500,O=C(NCC(O)C(F)(F)F)c1noc2c1CN(c1ncnc3[nH]ccc13)CC2 (stereo not drawn) [Compound 190]
2,> 2000,O=C(NCC1CC(F)(F)C1)c1noc2c1CN(c1ncnc3[nH]ccc13)CC2 [Compound 198]
3,500 to 2000,O=C(NCCC(F)(F)F)c1n[nH]c2c1CN(c1ncnc3[nH]ccc13)CC2 [Compound 109]

# Target: T2, JAK3 (Homo sapiens, UniProt P52333)
# T2 construct: purchased Invitrogen PV4080
# T2 sequence (P52333 1-1124): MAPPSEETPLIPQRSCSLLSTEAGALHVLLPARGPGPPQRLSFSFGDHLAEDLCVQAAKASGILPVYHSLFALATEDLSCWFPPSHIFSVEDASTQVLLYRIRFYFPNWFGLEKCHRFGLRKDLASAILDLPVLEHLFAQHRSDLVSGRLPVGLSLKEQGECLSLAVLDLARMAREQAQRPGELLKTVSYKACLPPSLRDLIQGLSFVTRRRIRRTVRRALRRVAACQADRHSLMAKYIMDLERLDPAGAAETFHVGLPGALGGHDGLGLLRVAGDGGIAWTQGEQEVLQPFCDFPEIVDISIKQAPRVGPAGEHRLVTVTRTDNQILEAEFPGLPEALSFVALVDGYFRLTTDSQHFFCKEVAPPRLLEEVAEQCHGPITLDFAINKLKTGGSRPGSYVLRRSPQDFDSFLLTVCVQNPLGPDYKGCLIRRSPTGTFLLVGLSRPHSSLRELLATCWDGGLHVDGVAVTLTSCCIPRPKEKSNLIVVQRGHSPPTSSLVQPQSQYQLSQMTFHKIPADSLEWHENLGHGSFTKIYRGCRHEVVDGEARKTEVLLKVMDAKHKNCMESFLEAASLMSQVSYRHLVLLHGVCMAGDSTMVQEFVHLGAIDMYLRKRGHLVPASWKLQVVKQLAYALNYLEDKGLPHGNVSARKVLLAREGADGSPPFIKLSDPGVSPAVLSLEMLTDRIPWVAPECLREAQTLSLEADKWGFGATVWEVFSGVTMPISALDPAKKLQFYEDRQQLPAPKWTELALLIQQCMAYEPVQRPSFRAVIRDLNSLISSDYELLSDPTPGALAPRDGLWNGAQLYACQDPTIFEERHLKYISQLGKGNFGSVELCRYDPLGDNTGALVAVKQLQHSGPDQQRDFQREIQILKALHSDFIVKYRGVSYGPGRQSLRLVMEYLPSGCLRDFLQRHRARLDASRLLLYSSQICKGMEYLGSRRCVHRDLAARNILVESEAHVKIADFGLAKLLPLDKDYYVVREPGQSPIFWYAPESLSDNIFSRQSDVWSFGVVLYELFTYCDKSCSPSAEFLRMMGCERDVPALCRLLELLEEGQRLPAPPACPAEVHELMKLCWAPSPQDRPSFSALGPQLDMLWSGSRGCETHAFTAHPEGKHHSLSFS
# Assay: Inhibition of JAK3 kinase, LANCE Ultra TR-FRET assay
# Assay type: biochemical
# Conditions: 2x ATP 8 μM, 15 min pre-incubation, 90 min reaction, 23° C.
# Procedure: as §1, §2, §3, §4, §5, §6, §7
row,Compound,IC50 [nM]
1,COCCn1nc(C(=O)NCCC(F)(F)F)c2c1CCN(c1ncnc3[nH]ccc13)C2 [Compound 104],< 100
2,O=C(NC(CO)CC(F)(F)F)c1noc2c1CN(c1ncnc3[nH]ccc13)CC2 (stereo not drawn) [Compound 186],< 100
3,O=C(NC1CC(O)(C(F)(F)F)C1)c1noc2c1CN(c1ncnc3[nH]ccc13)CC2 (stereo not drawn) [Compound 201],< 100

# Results, then the compound that gave them:
row,IC50 [nM],Compound
1,< 100,O=C(NCC(O)C(F)(F)F)c1noc2c1CN(c1ncnc3[nH]ccc13)CC2 (stereo not drawn) [Compound 190]
2,< 100,O=C(NCC1CC(F)(F)C1)c1noc2c1CN(c1ncnc3[nH]ccc13)CC2 [Compound 198]
3,< 100,O=C(NCCC(F)(F)F)c1n[nH]c2c1CN(c1ncnc3[nH]ccc13)CC2 [Compound 109]

# Target: T3, JAK1 (Homo sapiens, UniProt P23458)
# T3 construct: purchased Invitrogen PV4775
# Assay: Inhibition of JAK1 kinase, LANCE Ultra TR-FRET assay
# Assay type: biochemical
# Conditions: 2 nM JAK1, 2x ATP 76 μM, 15 min pre-incubation, 90 min reaction, 23° C.
# Procedure: as §1, §2, §3, §4, §5, §6, §7
# T3 sequence (P23458 whole entry): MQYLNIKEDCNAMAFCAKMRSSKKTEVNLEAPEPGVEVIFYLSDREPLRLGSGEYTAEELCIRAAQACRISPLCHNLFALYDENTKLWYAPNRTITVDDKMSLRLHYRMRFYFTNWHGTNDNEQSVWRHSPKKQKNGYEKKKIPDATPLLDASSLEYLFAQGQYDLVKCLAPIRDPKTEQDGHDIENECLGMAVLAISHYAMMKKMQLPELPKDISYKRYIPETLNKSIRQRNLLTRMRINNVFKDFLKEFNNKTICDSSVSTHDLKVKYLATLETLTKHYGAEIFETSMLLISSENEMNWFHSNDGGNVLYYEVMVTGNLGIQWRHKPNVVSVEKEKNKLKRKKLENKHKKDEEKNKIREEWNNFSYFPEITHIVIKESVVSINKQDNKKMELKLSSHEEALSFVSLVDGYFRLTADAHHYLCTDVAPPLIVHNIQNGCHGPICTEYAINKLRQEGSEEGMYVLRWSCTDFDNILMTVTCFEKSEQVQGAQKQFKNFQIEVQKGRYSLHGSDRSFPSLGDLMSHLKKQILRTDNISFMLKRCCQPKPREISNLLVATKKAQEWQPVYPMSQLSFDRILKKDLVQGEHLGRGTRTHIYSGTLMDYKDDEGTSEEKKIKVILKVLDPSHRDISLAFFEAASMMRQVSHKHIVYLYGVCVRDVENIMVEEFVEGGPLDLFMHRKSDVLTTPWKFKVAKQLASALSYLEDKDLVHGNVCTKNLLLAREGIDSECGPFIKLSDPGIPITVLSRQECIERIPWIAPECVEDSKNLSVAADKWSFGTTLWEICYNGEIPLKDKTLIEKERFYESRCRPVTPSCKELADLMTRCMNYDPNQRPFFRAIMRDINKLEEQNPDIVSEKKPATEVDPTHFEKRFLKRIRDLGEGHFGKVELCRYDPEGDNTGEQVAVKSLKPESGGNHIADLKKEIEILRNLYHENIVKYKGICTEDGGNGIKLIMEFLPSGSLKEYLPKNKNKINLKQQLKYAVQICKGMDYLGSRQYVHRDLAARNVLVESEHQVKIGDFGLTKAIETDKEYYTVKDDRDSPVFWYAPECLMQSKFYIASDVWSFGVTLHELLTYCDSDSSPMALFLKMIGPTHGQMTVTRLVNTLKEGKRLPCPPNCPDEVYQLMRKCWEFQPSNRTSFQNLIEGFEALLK
row,Compound,IC50 [nM]
1,COCCn1nc(C(=O)NCCC(F)(F)F)c2c1CCN(c1ncnc3[nH]ccc13)C2 [Compound 104],100 to 500
2,O=C(NC(CO)CC(F)(F)F)c1noc2c1CN(c1ncnc3[nH]ccc13)CC2 (stereo not drawn) [Compound 186],< 100
3,O=C(NC1CC(O)(C(F)(F)F)C1)c1noc2c1CN(c1ncnc3[nH]ccc13)CC2 (stereo not drawn) [Compound 201],< 100

# Other lines, results leading:
row,IC50 [nM],Compound
1,< 100,O=C(NCC(O)C(F)(F)F)c1noc2c1CN(c1ncnc3[nH]ccc13)CC2 (stereo not drawn) [Compound 190]
2,< 100,O=C(NCC1CC(F)(F)C1)c1noc2c1CN(c1ncnc3[nH]ccc13)CC2 [Compound 198]
3,< 100,O=C(NCCC(F)(F)F)c1n[nH]c2c1CN(c1ncnc3[nH]ccc13)CC2 [Compound 109]

# Target: T4, JAK2 (Homo sapiens, UniProt O60674)
# T4 construct: purchased Invitrogen PV4210
# Assay: Inhibition of JAK2 kinase, LANCE Ultra TR-FRET assay
# Assay type: biochemical
# Conditions: 2x ATP 24 μM, 15 min pre-incubation, 90 min reaction, 23° C.
# Procedure: as §1, §2, §3, §4, §5, §6, §7
# T4 sequence (O60674 whole entry): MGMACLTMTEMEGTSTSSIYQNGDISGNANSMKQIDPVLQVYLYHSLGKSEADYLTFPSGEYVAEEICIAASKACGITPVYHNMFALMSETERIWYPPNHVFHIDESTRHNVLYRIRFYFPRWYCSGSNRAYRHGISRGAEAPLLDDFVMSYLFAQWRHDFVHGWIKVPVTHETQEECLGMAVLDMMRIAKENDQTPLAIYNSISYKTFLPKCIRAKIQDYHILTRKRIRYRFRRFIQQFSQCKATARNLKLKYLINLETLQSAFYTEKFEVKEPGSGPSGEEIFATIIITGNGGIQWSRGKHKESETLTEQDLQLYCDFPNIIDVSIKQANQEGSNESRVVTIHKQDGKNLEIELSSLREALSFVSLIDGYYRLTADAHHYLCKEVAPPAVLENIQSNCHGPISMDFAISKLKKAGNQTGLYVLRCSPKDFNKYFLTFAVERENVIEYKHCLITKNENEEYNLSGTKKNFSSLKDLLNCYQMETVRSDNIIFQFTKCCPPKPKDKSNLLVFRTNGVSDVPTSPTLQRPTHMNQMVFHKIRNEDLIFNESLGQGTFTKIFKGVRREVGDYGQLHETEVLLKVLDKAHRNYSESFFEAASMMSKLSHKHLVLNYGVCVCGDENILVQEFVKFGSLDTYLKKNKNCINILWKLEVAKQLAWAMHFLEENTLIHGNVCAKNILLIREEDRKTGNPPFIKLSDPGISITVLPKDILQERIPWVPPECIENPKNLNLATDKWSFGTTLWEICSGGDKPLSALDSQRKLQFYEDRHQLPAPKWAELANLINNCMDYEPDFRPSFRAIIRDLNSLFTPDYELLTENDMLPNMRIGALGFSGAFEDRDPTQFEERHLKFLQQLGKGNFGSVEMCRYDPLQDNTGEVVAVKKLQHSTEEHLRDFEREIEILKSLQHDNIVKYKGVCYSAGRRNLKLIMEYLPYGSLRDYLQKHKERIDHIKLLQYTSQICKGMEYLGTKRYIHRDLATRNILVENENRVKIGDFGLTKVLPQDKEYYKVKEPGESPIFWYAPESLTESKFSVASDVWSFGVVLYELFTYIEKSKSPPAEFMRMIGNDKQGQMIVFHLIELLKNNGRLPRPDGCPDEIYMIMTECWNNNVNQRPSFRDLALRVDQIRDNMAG
row,Compound,IC50 [nM]
1,COCCn1nc(C(=O)NCCC(F)(F)F)c2c1CCN(c1ncnc3[nH]ccc13)C2 [Compound 104],100 to 500
2,O=C(NC(CO)CC(F)(F)F)c1noc2c1CN(c1ncnc3[nH]ccc13)CC2 (stereo not drawn) [Compound 186],< 100
3,O=C(NC1CC(O)(C(F)(F)F)C1)c1noc2c1CN(c1ncnc3[nH]ccc13)CC2 (stereo not drawn) [Compound 201],100 to 500

# Second part, the compound after the results:
row,IC50 [nM],Compound
1,< 100,O=C(NCC(O)C(F)(F)F)c1noc2c1CN(c1ncnc3[nH]ccc13)CC2 (stereo not drawn) [Compound 190]
2,100 to 500,O=C(NCC1CC(F)(F)C1)c1noc2c1CN(c1ncnc3[nH]ccc13)CC2 [Compound 198]
3,100 to 500,O=C(NCCC(F)(F)F)c1n[nH]c2c1CN(c1ncnc3[nH]ccc13)CC2 [Compound 109]
